From patent US9796711B2, “Substituted pyrazolo[3,4-b]pyridin-6-carboxylic acids and method of use” (AbbVie S.àr.l., priority 2015, dated 2017) come the findings set out here.

The target of test [1] is T1, ΔF508-CFTR (Homo sapiens, UniProt P13569, DEL508-508).
T1 construct: host or cells: CFBE41o-, doxycycline-inducible
The test is described as follows: CFTR cell surface levels using HRP-tagged ΔF508-CFTR expressing CFBE cells, in the presence of a co-corrector. Format: cell-based. Summed up:
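Cells were seeded with 0.5 μg/mL doxycycline and held 68 h at 37 °C. Test compounds plus 3 μM co-corrector (final 0.1% DMSO) were then added for 20 h at 33 °C. Washed cells received HRP substrate, and luminescence was normalized between DMSO and 3 μM co-corrector controls.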

The target in test [2] is T1, ΔF508-CFTR. The test is described as follows: CFTR cell surface levels using HRP-tagged ΔF508-CFTR expressing CFBE cells, intrinsic corrector capacity. Format: cell-based. A digest of the protocol:
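Here the cells express ΔF508-CFTR with horseradish peroxidase inserted in extracellular loop 4, so only rescued channel at the surface gives luminescent signal. Compounds act on their own, 20 h at the reduced temperature of 33 °C; values are percent activity relative to DMSO and a 3 μM corrector.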

[3] abbreviates: HRP-tagged ΔF508-CFTR expressing CFBE cells, in the presence of 3 μM co-corrector.
[4] abbreviates: HRP-tagged ΔF508-CFTR expressing CFBE cells, in the presence of 3 μM co-corrector, read-out: EC50.
Where [5] appears, read: HRP-tagged ΔF508-CFTR expressing CFBE cells, intrinsic corrector capacity (no co-corrector), 33° C., 20 hours.
Setting [6] is: HRP-tagged ΔF508-CFTR expressing CFBE cells, intrinsic corrector capacity (no co-corrector), 33° C., 20 hours, read-out: EC50.
[7] abbreviates: HRP-tagged ΔF508-CFTR CFBE41o- cells, compounds alone (intrinsic corrector capacity), 20 hours at 33° C., positive control 3 μM corrector.
The mark [8] stands for this setting: HRP-tagged ΔF508-CFTR CFBE41o- cells, compounds alone (intrinsic corrector capacity), 20 hours at 33° C., read-out: EC50.

T1 sequence (P13569 with tags, fused parts or gaps DEL508-508): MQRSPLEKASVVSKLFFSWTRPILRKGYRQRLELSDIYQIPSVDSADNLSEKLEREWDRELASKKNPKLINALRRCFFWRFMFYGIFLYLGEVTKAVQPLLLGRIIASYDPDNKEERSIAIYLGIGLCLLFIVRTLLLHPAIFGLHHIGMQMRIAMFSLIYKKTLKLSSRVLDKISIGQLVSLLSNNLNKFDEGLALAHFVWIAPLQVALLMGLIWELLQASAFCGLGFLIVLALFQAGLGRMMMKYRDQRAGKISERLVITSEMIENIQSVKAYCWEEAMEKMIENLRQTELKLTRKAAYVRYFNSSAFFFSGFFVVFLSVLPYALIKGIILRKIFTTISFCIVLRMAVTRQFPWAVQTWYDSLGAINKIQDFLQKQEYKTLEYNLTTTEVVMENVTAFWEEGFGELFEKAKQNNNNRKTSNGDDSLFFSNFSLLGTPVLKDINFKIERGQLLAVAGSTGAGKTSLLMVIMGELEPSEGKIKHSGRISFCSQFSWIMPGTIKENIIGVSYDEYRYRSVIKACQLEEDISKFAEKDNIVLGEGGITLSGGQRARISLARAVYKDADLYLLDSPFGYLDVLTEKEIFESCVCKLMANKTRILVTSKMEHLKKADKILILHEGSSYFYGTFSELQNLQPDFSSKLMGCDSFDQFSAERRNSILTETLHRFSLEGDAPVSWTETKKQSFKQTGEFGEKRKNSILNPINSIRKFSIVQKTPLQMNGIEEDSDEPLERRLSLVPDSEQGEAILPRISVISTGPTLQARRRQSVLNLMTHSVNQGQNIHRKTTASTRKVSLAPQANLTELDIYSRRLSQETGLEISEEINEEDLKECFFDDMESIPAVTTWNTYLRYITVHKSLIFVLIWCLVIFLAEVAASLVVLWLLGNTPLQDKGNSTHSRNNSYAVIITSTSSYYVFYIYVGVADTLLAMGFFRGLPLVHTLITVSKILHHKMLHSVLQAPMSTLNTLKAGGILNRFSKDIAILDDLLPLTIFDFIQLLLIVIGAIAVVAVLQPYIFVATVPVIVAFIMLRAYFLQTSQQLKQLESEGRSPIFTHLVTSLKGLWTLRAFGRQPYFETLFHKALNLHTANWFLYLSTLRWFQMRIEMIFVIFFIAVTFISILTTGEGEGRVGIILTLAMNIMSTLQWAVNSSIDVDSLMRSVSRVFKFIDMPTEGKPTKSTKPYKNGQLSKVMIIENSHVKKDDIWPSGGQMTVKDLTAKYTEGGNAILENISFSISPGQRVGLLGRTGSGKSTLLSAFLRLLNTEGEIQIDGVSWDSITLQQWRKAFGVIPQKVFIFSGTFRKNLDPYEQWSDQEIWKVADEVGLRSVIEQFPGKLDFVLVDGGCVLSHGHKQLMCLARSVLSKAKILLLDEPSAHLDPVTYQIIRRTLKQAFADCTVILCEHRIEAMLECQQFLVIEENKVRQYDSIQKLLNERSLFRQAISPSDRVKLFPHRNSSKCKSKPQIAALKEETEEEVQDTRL

For `O=C(O)c1cc(N2CCOC(CO)C2)c2c(C3CCC3)nn(-c3ccccc3)c2n1` (centres unmarked) [compound 531, 3-cyclobutyl-4-[2-(hydroxymethyl)morpholin-4-yl]-1-phenyl-1H-pyrazolo[3,4-b]pyridine-6-carboxylic acid], the figures for the “% Activation” value on ΔF508-CFTR [1] (setting [3]) and at ΔF508-CFTR [2] (setting [5]) were 223.4% and 91.66%, respectively. Besides, the values for the EC50 at ΔF508-CFTR [1] (setting [4]) and at ΔF508-CFTR [2] (setting [6]) were 1450 nM and 3330 nM, respectively.
With `COC(=O)N1CC(c2nn(-c3ccccc3)c3nc(C(=O)O)cc(-c4ccc(N5CCOCC5)cc4)c23)C1` [compound 86, 3-[1-(methoxycarbonyl)azetidin-3-yl]-4-[4-(morpholin-4-yl)phenyl]-1-phenyl-1H-pyrazolo[3,4-b]pyridine-6-carboxylic acid], the figures for the “% Activation” value at ΔF508-CFTR [1] (setting [3]) and on ΔF508-CFTR [2] (setting [7]) were 300.25% and 129.75%, respectively. In addition, the EC50 at ΔF508-CFTR [1] (setting [4]) was found to be 2550 nM; on ΔF508-CFTR [2] (setting [8]) it was 3340 nM.
As to `CC(C)(C)OC(=O)N1CCCC1c1nn(-c2ccccc2)c2nc(C(=O)O)cc(-c3ccc(N4CCOCC4)cc3)c12` (centres unmarked) [compound 76], the “% Activation” value was 244.2% at ΔF508-CFTR [1] (setting [3]) and 117.9% on ΔF508-CFTR [2] (setting [7]). Moreover, the EC50 worked out at 430 nM at ΔF508-CFTR [1] (setting [4]) and 835 nM on ΔF508-CFTR [2] (setting [8]).
In the case of `CCC1(F)CN(c2cc(C(=O)O)nc3c2c(C2CCC2)nn3-c2ccccc2)C1` [compound 530, 3-cyclobutyl-4-(3-ethyl-3-fluoroazetidin-1-yl)-1-phenyl-1H-pyrazolo[3,4-b]pyridine-6-carboxylic acid], the entries for the “% Activation” value at ΔF508-CFTR [1] (setting [3]) and at ΔF508-CFTR [2] (setting [5]) were 254.15% and 90.17%, respectively. The EC50 turned out to be 542 nM at ΔF508-CFTR [1] (setting [4]) and 718 nM at ΔF508-CFTR [2] (setting [6]).
With `Cc1nn(-c2ccccc2)c2nc(C(=O)O)cc(OCC3(C)CC(F)(F)C3)c12` [compound 386, 4-[(3,3-difluoro-1-methylcyclobutyl)methoxy]-3-methyl-1-phenyl-1H-pyrazolo[3,4-b]pyridine-6-carboxylic acid], the “% Activation” value at ΔF508-CFTR [1] (setting [3]) stood at 250.65%; on ΔF508-CFTR [2] (setting [7]) it was 64.285%. In addition, the EC50 at ΔF508-CFTR [1] (setting [4]) stood at 1440 nM; on ΔF508-CFTR [2] (setting [8]), 1310 nM.
The corresponding values for `Cc1cccc(-n2nc(C)c3c(-c4ccc(N5CCOCC5)cc4)cc(C(=O)O)nc32)c1` [compound 13, 3-methyl-1-(3-methylphenyl)-4-[4-(morpholin-4-yl)phenyl]-1H-pyrazolo[3,4-b]pyridine-6-carboxylic acid] are 363.7%, 159.23%, 723 nM and 997 nM.
With `Cc1cccc(-n2nc(C(C)C)c3c(N4CC5(CCCCO5)C4)cc(C(=O)O)nc32)c1` [compound 274, 1-(3-methylphenyl)-4-(5-oxa-2-azaspiro[3.5]nonan-2-yl)-3-(propan-2-yl)-1H-pyrazolo[3,4-b]pyridine-6-carboxylic acid], the “% Activation” value on ΔF508-CFTR [1] (setting [3]) came out at 301.45%; on ΔF508-CFTR [2] (setting [7]), 114.64%. Moreover, the EC50 on ΔF508-CFTR [1] (setting [4]) was determined as 902 nM; at ΔF508-CFTR [2] (setting [8]) it was 1080 nM.
For the compound `CCOCCN1CCN(C2CCN(c3cc(C(=O)O)nc4c3c(C(C)C)nn4-c3ccc(F)cc3)CC2)CC1` [compound 745, 4-{4-[4-(2-ethoxyethyl)piperazin-1-yl]piperidin-1-yl}-1-(4-fluorophenyl)-3-(propan-2-yl)-1H-pyrazolo[3,4-b]pyridine-6-carboxylic acid], the “% Activation” value came to 457.5% at ΔF508-CFTR [1] (setting [3]) and 239.3% at ΔF508-CFTR [2] (setting [5]). The EC50 came to 191 nM at ΔF508-CFTR [1] (setting [4]) and 573 nM on ΔF508-CFTR [2] (setting [6]).
`CC(C)c1nn(-c2ccc(F)cc2)c2nc(C(=O)O)cc(N3CCC(CN4CCCC4)CC3)c12` [compound 811, 1-(4-fluorophenyl)-3-(propan-2-yl)-4-{4-[(pyrrolidin-1-yl)methyl]piperidin-1-yl}-1H-pyrazolo[3,4-b]pyridine-6-carboxylic acid]: the EC50 at ΔF508-CFTR [1] turned out to be 1080 nM; on ΔF508-CFTR [2], 890 nM. Besides, the “% Activation” value at ΔF508-CFTR [1] (setting [3]) was found to be 408.4%; on ΔF508-CFTR [2] (setting [5]), 120.4%.
`CC(C)c1nn(-c2ccc(F)cc2)c2nc(C(=O)O)cc(OCCC3CCOCC3)c12` [compound 604, 1-(4-fluorophenyl)-4-[2-(oxan-4-yl)ethoxy]-3-(propan-2-yl)-1H-pyrazolo[3,4-b]pyridine-6-carboxylic acid]: the figures for the “% Activation” value on ΔF508-CFTR [1] (setting [3]) and at ΔF508-CFTR [2] (setting [5]) were 292.2% and 142.9%, respectively. The figures for the EC50 on ΔF508-CFTR [1] (setting [4]) and at ΔF508-CFTR [2] (setting [6]) were 256 nM and 738 nM, respectively.
For `Cc1cccc(-n2nc(C(C)C)c3c(N4CCC5(CCOCC5)C4)cc(C(=O)O)nc32)c1` [compound 262, 1-(3-methylphenyl)-4-(8-oxa-2-azaspiro[4.5]decan-2-yl)-3-(propan-2-yl)-1H-pyrazolo[3,4-b]pyridine-6-carboxylic acid], the “% Activation” value at ΔF508-CFTR [1] (setting [3]) is on record as 375.95%; at ΔF508-CFTR [2] (setting [7]), 164.4%. Also, the EC50 worked out at 853 nM at ΔF508-CFTR [1] (setting [4]) and 916 nM on ΔF508-CFTR [2] (setting [8]).
For the compound `CC(C)c1nn(C2CCCC2)c2nc(C(=O)O)cc(-c3ccc(N(C)C)nc3)c12` [compound 83, 1-cyclopentyl-4-[6-(dimethylamino)pyridin-3-yl]-3-(propan-2-yl)-1H-pyrazolo[3,4-b]pyridine-6-carboxylic acid], the figures for the “% Activation” value at ΔF508-CFTR [1] (setting [3]) and on ΔF508-CFTR [2] (setting [7]) were 332.65% and 142.25%, respectively. The figures for the EC50 at ΔF508-CFTR [1] (setting [4]) and at ΔF508-CFTR [2] (setting [8]) were 1050 nM and 1470 nM, respectively.
On to `CN1CCC[C@@H](Oc2cc(C(=O)O)nc3c2c(C2CCC2)nn3-c2ccccc2)C1` [compound 496, 3-cyclobutyl-4-{[(3R)-1-methylpiperidin-3-yl]oxy}-1-phenyl-1H-pyrazolo[3,4-b]pyridine-6-carboxylic acid], for which the “% Activation” value on ΔF508-CFTR [1] (setting [3]) is 145.5%; on ΔF508-CFTR [2] (setting [5]), 32.84%. In addition, the EC50 amounted to 2130 nM on ΔF508-CFTR [1] (setting [4]) and 3340 nM on ΔF508-CFTR [2] (setting [6]).
For `CC(C)c1nn(C2CCOC2)c2nc(C(=O)O)cc(-c3ccc(N4CCOCC4)cc3)c12` (centres unmarked) [compound 120, 4-[4-(morpholin-4-yl)phenyl]-1-(oxolan-3-yl)-3-(propan-2-yl)-1H-pyrazolo[3,4-b]pyridine-6-carboxylic acid], the “% Activation” value at ΔF508-CFTR [1] (setting [3]) turned out to be 231.45%; at ΔF508-CFTR [2] (setting [7]), 70.235%. Further, the results for the EC50 on ΔF508-CFTR [1] (setting [4]) and at ΔF508-CFTR [2] (setting [8]) were 3140 nM and 3340 nM, respectively.
On to `CC(C)c1nn(-c2ccc(F)cc2)c2nc(C(=O)O)cc(N3CCCN(C)CC3)c12` [compound 769, 1-(4-fluorophenyl)-4-(4-methyl-1,4-diazepan-1-yl)-3-(propan-2-yl)-1H-pyrazolo[3,4-b]pyridine-6-carboxylic acid], for which the “% Activation” value worked out at 157.2% on ΔF508-CFTR [1] (setting [3]) and 19.25% on ΔF508-CFTR [2] (setting [5]). Further, the figures for the EC50 at ΔF508-CFTR [1] (setting [4]) and at ΔF508-CFTR [2] (setting [6]) were 1580 nM and 5000 nM, respectively.
As for `CC(=O)NC1CCN(c2cc(C(=O)O)nc3c2c(C)nn3-c2ccccc2)CC1` [compound 292, 4-(4-acetamidopiperidin-1-yl)-3-methyl-1-phenyl-1H-pyrazolo[3,4-b]pyridine-6-carboxylic acid], the “% Activation” value on ΔF508-CFTR [1] (setting [3]) amounted to 141.1%; on ΔF508-CFTR [2] (setting [7]) it was 15.095%. In addition, the figures for the EC50 at ΔF508-CFTR [1] (setting [4]) and at ΔF508-CFTR [2] (setting [8]) were 4170 nM and 7500 nM, respectively.
As for `N#CC1CCN(C2CCN(c3cc(C(=O)O)nc4c3c(C3CCC3)nn4-c3ccc(F)cc3)CC2)C1` (centres unmarked) [compound 870, 4-[4-(3-cyanopyrrolidin-1-yl)piperidin-1-yl]-3-cyclobutyl-1-(4-fluorophenyl)-1H-pyrazolo[3,4-b]pyridine-6-carboxylic acid], the “% Activation” value on ΔF508-CFTR [1] (setting [3]) stood at 611.45%; at ΔF508-CFTR [2] (setting [5]) it was 304.4%. The figures for the EC50 on ΔF508-CFTR [1] (setting [4]) and on ΔF508-CFTR [2] (setting [6]) were 171 nM and 1040 nM, respectively.

One may read the EC50 as the concentration giving half of the maximal effect.
